Tests used:
Edwardsiella tarda = experiment: Treatment effect of infected fry by oral administration in feed; type: in vivo, Sebastes schlegeli; conditions: 50 fish, Bastardhalibut
Method: (§1) In this example, fry of Bastardhalibut and Sebastes schlegeli (mean body weight 2 g), 50 per each breeding tank, were preliminary-bred for 1 week and stabilized. […] The artificial infection methods were carried out through the digestion method. Pathogenic organisms were applied into fish tanks and introduced into seawater for an hour, wherein the concentration of organisms adjusted to 10^4 CFU/mL. Treatment conditions are as follows; after artificial infection, infected fish were moved to fish tanks and kept in the infection period for 3 days. On the fourth day of infection, 0.1˜50 ppm of δ-aminolevulinic acid for feed were added. The fish were bred for 2 weeks after exchanging with clean seawater and the mortality of fish according to infection was monitored. In the control groups, after each bacteria were identically infected through digestion method, mortality of Bastardhalibut and Sebastes schlegeli according to bacteria infection was identified while breeding with marketing assorted feed without δ-aminolevulinic acid. As a result of this experiment, δ-aminolevulinic acid-treated groups have shown high viability in both Bastardhalibut (Table 20˜Table 23) and Sebastes schlegeli (Table 24˜Table 27).

Vibrio anguillarum = experiment: as above; type: in vivo, Sebastes schlegeli; conditions: 50 fish, Bastardhalibut
Method: as §1

Staphylococcus sp. = experiment: as above; type: in vivo, Sebastes schlegeli; conditions: 50 fish, Bastardhalibut
Method: as §1

Streptococcus sp. = experiment: as above; type: in vivo, Sebastes schlegeli; conditions: 50 fish, Bastardhalibut
Method: as §1

Pseudomonas sp. = experiment: as above; type: in vivo, Sebastes schlegeli; conditions: 50 fish, Bastardhalibut
Method: as §1

[1] = test system: White Spot Syndrome Virus (WSSV); experiment: Treatment for WSSV infected shrimp; type: in vivo, Penaeus Chinesis
Method: In this experiment, after injection of the viral homogenate aforementioned in EXPERIMENT 1, treatment group was immersed respectively in 0.01˜10 ppm of ALA for 1.5 hour for 3 days.

Birnavirus = experiment: Treatment effect on eel disease of Birnavirus (field); type: in vivo; conditions: 0.1˜10 ppm added to the farm; after 3 weeks administration
Method: In the example, the experiment was carried out in the field at the Eel Aguacultural Farm, Gochang and Kunsan, in Chunbuk, Korea. Eels were dead by infection of Birnavirus, which was easely confirmed by microscopical or electron microscopical observation.
ALA, at the concentration range of 0.1˜10 ppm was added to the farm for 3 months. After 3 weeks administration, motality was decreased to less than 10% (1˜2kg).

Iridovirus = experiment: Treatment effect of virus-infected fish; type: in vivo, Pagrus major; conditions: for mortality during 10 days: 30 fish
From the text: In this present example, as carried out in Experiment 2 of Example 3, from the result that inhibition effect of virus infection in vitro by δ-aminolevulinic acid treatment was ascertained, fish whose diseases were in progress by virus infection, decrease in the mortality of infected fish body was ascertained when treated with δ-aminolevulinic acid. Pagrus major diagnosed by the PCR method among a school of Iridovirus-infected fish from a fish farm nearby Yeosu, 30 of each were separated and contained in […]. They were divided to group A, B, C and control group. Temporary changes in mortality was ascertained in 10 ppm δ-aminolevulinic acid-treated A group, 1.0 ppm δ-aminolevulinic acid-treated B group, 0.1 ppm δ-aminolevulinic acid-treated C group and untreated control group by using δ-aminolevulinic acid produced by the inventor. Each δ-aminolevulinic acid-treated group was treated 3 times in […] and 10 days results were reported. In the case of actual fish farms, the mortality by virus infection reaches up to 70%. However, as shown in the result of infected fish of Table 28, in the present experimental condition, cumulative mortality of infected fish without treatment has reached up to 50% until 10th day of experimental period. In δ-aminolevulinic acid-treated groups, low mortalities of 17%, 17% and 27% was shown in the condition of A, B and C groups during 10 days, respectively.

[2] = feed 0.1 ppm from 4th day of infection
[3] = feed 1.0 ppm from 4th day of infection
[4] = feed 10 ppm from 4th day of infection
[5] = feed 50 ppm from 4th day of infection

SMILES: NCC(=O)CCC(=O)O [δ-aminolevulinic acid]
- Viability (Edwardsiella tarda; [2]): 52%
- Viability (Edwardsiella tarda; [3]): 62%
- Viability (Edwardsiella tarda; [4]): 68%
- Viability (Edwardsiella tarda; [5]): 88%
- Viability (Vibrio anguillarum; [2]): 50%
- Viability (Vibrio anguillarum; [3]): 74%
- Viability (Vibrio anguillarum; [4]): 84%
- Viability (Vibrio anguillarum; [5]): 86%
- Viability (Staphylococcus sp.; [2]): 48%
- Viability (Staphylococcus sp.; [3]): 70%
- Viability (Staphylococcus sp.; [4]): 78%
- Viability (Staphylococcus sp.; [5]): 88%
- Viability (Streptococcus sp.; [2]): 44%
- Viability (Streptococcus sp.; [3]): 66%
- Viability (Streptococcus sp.; [4]): 72%
- Viability (Streptococcus sp.; [5]): 82%
- Viability (Pseudomonas sp.; [2]): 52%
- Viability (Pseudomonas sp.; [3]): 78%
- Viability (Pseudomonas sp.; [4]): 86%
- Viability (Pseudomonas sp.; [5]): 84%
- Cumulative mortality ([1]; 0.01 ppm, after injection for 3 weeks): 100%
- Mortality after injection for 3 weeks ([1]; 0.01 ppm, day 1, 50 shrimp): 0
- Mortality after injection for 3 weeks ([1]; 0.01 ppm, day 2, 50 shrimp): 0
- Mortality after injection for 3 weeks ([1]; 0.01 ppm, day 3, 50 shrimp): 15
- Mortality after injection for 3 weeks ([1]; 0.01 ppm, day 4, 50 shrimp): 20
- Mortality after injection for 3 weeks ([1]; 0.01 ppm, day 5, 50 shrimp): 12
- Mortality after injection for 3 weeks ([1]; 0.01 ppm, day 6, 50 shrimp): 3
- Cumulative mortality ([1]; 0.1 ppm, after injection for 3 weeks): 18%
- Mortality after injection for 3 weeks ([1]; 0.1 ppm, day 1, 50 shrimp): 0
- Mortality after injection for 3 weeks ([1]; 0.1 ppm, day 2, 50 shrimp): 0
- Mortality after injection for 3 weeks ([1]; 0.1 ppm, day 3, 50 shrimp): 4
- Mortality after injection for 3 weeks ([1]; 0.1 ppm, day 4, 50 shrimp): 3
- Mortality after injection for 3 weeks ([1]; 0.1 ppm, day 5, 50 shrimp): 2
- Mortality after injection for 3 weeks ([1]; 0.1 ppm, day 6, 50 shrimp): 0
- Mortality after injection for 3 weeks ([1]; 0.1 ppm, day 7, 50 shrimp): 0
- Mortality after injection for 3 weeks ([1]; 0.1 ppm, day 21, 50 shrimp): 0
- Cumulative mortality ([1]; 1.0 ppm, after injection for 3 weeks): 10%
- Mortality after injection for 3 weeks ([1]; 1.0 ppm, day 1, 50 shrimp): 0
- Mortality after injection for 3 weeks ([1]; 1.0 ppm, day 2, 50 shrimp): 0
- Mortality after injection for 3 weeks ([1]; 1.0 ppm, day 3, 50 shrimp): 3
- Mortality after injection for 3 weeks ([1]; 1.0 ppm, day 4, 50 shrimp): 2
- Mortality after injection for 3 weeks ([1]; 1.0 ppm, day 5, 50 shrimp): 0
- Mortality after injection for 3 weeks ([1]; 1.0 ppm, day 6, 50 shrimp): 0
- Mortality after injection for 3 weeks ([1]; 1.0 ppm, day 7, 50 shrimp): 0
- Mortality after injection for 3 weeks ([1]; 1.0 ppm, day 21, 50 shrimp): 0
- Cumulative mortality ([1]; 10 ppm, after injection for 3 weeks): 8%
- Mortality after injection for 3 weeks ([1]; 10 ppm, day 1, 50 shrimp): 0
- Mortality after injection for 3 weeks ([1]; 10 ppm, day 2, 50 shrimp): 0
- Mortality after injection for 3 weeks ([1]; 10 ppm, day 3, 50 shrimp): 3
- Mortality after injection for 3 weeks ([1]; 10 ppm, day 4, 50 shrimp): 1
- Mortality after injection for 3 weeks ([1]; 10 ppm, day 5, 50 shrimp): 0
- Mortality after injection for 3 weeks ([1]; 10 ppm, day 6, 50 shrimp): 0
- Mortality after injection for 3 weeks ([1]; 10 ppm, day 7, 50 shrimp): 0
- Mortality after injection for 3 weeks ([1]; 10 ppm, day 21, 50 shrimp): 0
- Cumulative mortality ([1]; immersion 1.0 ppm, 1.5 hour for 3 days after virus injection, 3 weeks): 10%
- Cumulative mortality ([1]; immersion 10 ppm, 1.5 hour for 3 days after virus injection, 3 weeks): 8%
- mortality (Birnavirus): less than 10%
- Viable Fish number According to Elapsed days After Treatment (Iridovirus; 0.1 ppm, day 0): 30
- Viable Fish number According to Elapsed days After Treatment (Iridovirus; 0.1 ppm, day 1): 25
- Viable Fish number According to Elapsed days After Treatment (Iridovirus; 0.1 ppm, day 2): 25
- Viable Fish number According to Elapsed days After Treatment (Iridovirus; 0.1 ppm, day 3): 23
- Viable Fish number According to Elapsed days After Treatment (Iridovirus; 0.1 ppm, day 4): 23
- Viable Fish number According to Elapsed days After Treatment (Iridovirus; 0.1 ppm, day 5): 23
- Viable Fish number According to Elapsed days After Treatment (Iridovirus; 0.1 ppm, day 6): 22
- Viable Fish number According to Elapsed days After Treatment (Iridovirus; 0.1 ppm, day 7): 22
- Viable Fish number According to Elapsed days After Treatment (Iridovirus; 0.1 ppm, day 8): 22
- Viable Fish number According to Elapsed days After Treatment (Iridovirus; 0.1 ppm, day 9): 22
- Viable Fish number According to Elapsed days After Treatment (Iridovirus; 0.1 ppm, day 10): 22
- Viable Fish number According to Elapsed days After Treatment (Iridovirus; 1.0 ppm, day 0): 30
- Viable Fish number According to Elapsed days After Treatment (Iridovirus; 1.0 ppm, day 1): 28
- Viable Fish number According to Elapsed days After Treatment (Iridovirus; 1.0 ppm, day 2): 26
- Viable Fish number According to Elapsed days After Treatment (Iridovirus; 1.0 ppm, day 3): 26
- Viable Fish number According to Elapsed days After Treatment (Iridovirus; 1.0 ppm, day 4): 26
- Viable Fish number According to Elapsed days After Treatment (Iridovirus; 1.0 ppm, day 5): 25
- Viable Fish number According to Elapsed days After Treatment (Iridovirus; 1.0 ppm, day 6): 25
- Viable Fish number According to Elapsed days After Treatment (Iridovirus; 1.0 ppm, day 7): 25
- Viable Fish number According to Elapsed days After Treatment (Iridovirus; 1.0 ppm, day 8): 25
- Viable Fish number According to Elapsed days After Treatment (Iridovirus; 1.0 ppm, day 9): 25
- Viable Fish number According to Elapsed days After Treatment (Iridovirus; 1.0 ppm, day 10): 25
- Viable Fish number According to Elapsed days After Treatment (Iridovirus; 10 ppm, day 0): 30
- Viable Fish number According to Elapsed days After Treatment (Iridovirus; 10 ppm, day 1): 28
- Viable Fish number According to Elapsed days After Treatment (Iridovirus; 10 ppm, day 2): 26
- Viable Fish number According to Elapsed days After Treatment (Iridovirus; 10 ppm, day 3): 26
- Viable Fish number According to Elapsed days After Treatment (Iridovirus; 10 ppm, day 4): 26
- Viable Fish number According to Elapsed days After Treatment (Iridovirus; 10 ppm, day 5): 26
- Viable Fish number According to Elapsed days After Treatment (Iridovirus; 10 ppm, day 6): 26
- Viable Fish number According to Elapsed days After Treatment (Iridovirus; 10 ppm, day 7): 25
- Viable Fish number According to Elapsed days After Treatment (Iridovirus; 10 ppm, day 8): 25
- Viable Fish number According to Elapsed days After Treatment (Iridovirus; 10 ppm, day 9): 25
- Viable Fish number According to Elapsed days After Treatment (Iridovirus; 10 ppm, day 10): 25
- mortality during 10 days (Iridovirus; A group, 10 ppm): 17%
- mortality during 10 days (Iridovirus; B group, 1.0 ppm): 17%
- mortality during 10 days (Iridovirus; C group, 0.1 ppm): 27%

Source: patent publication US20010053796A1, “Delta-aminolevulinic acid for prevention and treatment of infection microorganisms and parasite” (priority 2000, published 2001)
